Measurements as given in patent US11013722B2, “Therapeutic agent for dyslipidemia” (KOWA COMPANY, LTD., priority 2012, dated 2021).

Legend:
[1] = test system: High-Cholesterol Diet-Fed Rats; assay: Example 1: combined effect of compound A and ezetimibe, plasma HDL-C; type: in vivo, SD rats; settings: for HDL-C Ave.: plasma, oral once a day, one week; for HDL-C Rate of Change: vs control
Protocol: The synergistic effect was determined by using Burgi's formula (if the relative level in the combined group is larger than the value of the product of the relative level of single agent A and the relative level of single agent B, the synergistic effect is positive).
(§1) Group 2: Compound A 0.1 mg/kg
Group 3: Ezetimibe 0.003 mg/kg
Group 4: Compound A 0.1 mg/kg and ezetimibe 0.003 mg/kg
(§2) The results were shown as the mean±standard deviation.

[2] = test system: High-Cholesterol Diet-Fed Rats; assay: Example 2: combined effect of compound A and ezetimibe, plasma TC and lipoprotein cholesterol; type: in vivo, SD rats
Protocol: The synergistic effect was determined by using Burgi's formula (in a case where a level lower than that in the control group is indicated in a drug administration group, that is, when the evaluation of an agent to the TC, VLDL-C, or LDL-C is performed, if the relative level in the combined group is smaller than the value of the product of the relative level of single agent A and the relative level of single agent B, the synergistic effect exists. In a case where a level higher than that in the control group is indicated in a drug administration group, that is, when the evaluation of an agent to the HDL-C is performed, if the relative level in the combined group is larger than the value of the product of the relative level of single agent A and the relative level of single agent B, the synergistic effect exists).
as §1
Group 3: Ezetimibe 0.01 mg/kg […]
Group 5: Ezetimibe 0.1 mg/kg […]
as §2

Structure (SMILES) | Effect on HDL-C level ([1]; Compound A 0.1 mg/kg alone) | HDL-C relative level to the control group ([1]; Compound A 0.1 mg/kg alone) | HDL-C Ave. ([1]; Compound A 0.1 mg/kg alone) | HDL-C Rate of Change ([1]; Compound A 0.1 mg/kg alone) | HDL-C Relative Level (to Control) ([2]; Compound A 0.1 mg/kg alone) | LDL-C Relative Level (to Control) ([2]; Compound A 0.1 mg/kg alone) | TC Relative Level (to Control) ([2]; Compound A 0.1 mg/kg alone) | VLDL-C Relative Level (to Control) ([2]; Compound A 0.1 mg/kg alone) | Effect on HDL-C level ([1]; Ezetimibe 0.003 mg/kg alone) | HDL-C relative level to the control group ([1]; Ezetimibe 0.003 mg/kg alone) | HDL-C Ave. ([1]; Ezetimibe 0.003 mg/kg alone) | HDL-C Rate of Change ([1]; Ezetimibe 0.003 mg/kg alone) | HDL-C Relative Level (to Control) ([2]; Ezetimibe 0.01 mg/kg alone) | LDL-C Relative Level (to Control) ([2]; Ezetimibe 0.01 mg/kg alone) | TC Relative Level (to Control) ([2]; Ezetimibe 0.01 mg/kg alone) | VLDL-C Relative Level (to Control) ([2]; Ezetimibe 0.01 mg/kg alone) | HDL-C Relative Level (to Control) ([2]; Ezetimibe 0.1 mg/kg alone) | LDL-C Relative Level (to Control) ([2]; Ezetimibe 0.1 mg/kg alone) | TC Relative Level (to Control) ([2]; Ezetimibe 0.1 mg/kg alone) | VLDL-C Relative Level (to Control) ([2]; Ezetimibe 0.1 mg/kg alone)
CC[C@@H](Oc1cccc(CN(CCCOc2ccc(OC)cc2)c2nc3ccccc3o2)c1)C(=O)O [Compound A, (R)-2-[3-[[N-(benzoxazol-2-yl)-N-3-(4-methoxyphenoxy)propyl]aminomethyl]phenoxy]butyric acid] | apparent effects were not recognized | 1.010 | 24.3 | 1.0% | 1.021 | 0.971 | 0.956 | 0.827 |  |  |  |  |  |  |  |  |  |  |  | 
O=C1[C@H](CC[C@H](O)c2ccc(F)cc2)[C@@H](c2ccc(O)cc2)N1c1ccc(F)cc1 [Ezetimibe, (3R,4S)-1-(4-fluorophenyl)-3-{(3S)-3-(4-fluorophenyl)-3-hydroxypropyl}-4-(4-hydroxyphenyl)azetidin-2-one] |  |  |  |  |  |  |  |  | apparent effects were not recognized | 1.022 | 24.6 | 2.2% | 0.910 | 0.955 | 0.898 | 0.719 | 1.100 | 0.720 | 0.555 | 0.262
